Values joined by “and” are separate entries in the source; they are usually repeats but may differ in a detail not shown here. Identical values can stand only once. Like-named read-outs stand apart in the source and are kept apart here.
Tests used:
[1] = In vivo pharmacokinetic analysis after TA delivery; design: species or system Sprague Dawley rats; settings: SD rats; for half-life: male, Sprague Dawley, rat
Protocol: Six-week-old male Sprague Dawley rats (SD rats) were purchased from Young Bio Inc. (Seongnam, Korea) and allowed seven days for acclimation. Three groups of SD rats were used for the pharmacokinetic study. All the dorsal regions of the SD rats were shaved for application of the TA-DMN patches. Group 1 was administered a subcutaneous injection of a formulation containing 60.6 μg of TA into the central part of the back using a 27 G hypodermic needle (Becton Dickinson, Franklin Lakes, NJ, USA), and served as the positive control. Group 2 received one TA-DMN patch containing 61.4 ± 1.3 µg of TA. Group 3 received two TA-DMN patches containing 122.8 ± 2.6 µg of TA. A home-made shooting device was used to apply the TA-DMN patches on the backs of the SD rats, and a dressing (Tegaderm; 3M Health Care, St. Paul, MN, USA) was used to cover the patches. In addition, a self-adherent bandage wrap (Coban; 3M Health Care, St. Paul, MN, USA) was used to secure the patches.
At 0, 0.25, 0.5, 0.75, 1, 2, 3.5, 4, 5, 6, and 24 h after subcutaneous administration of TA in group 1, 100 μL of blood was taken into a Microvette (SARSTEDT; Nümbrecht, Germany) from the saphenous vein, which was exposed after a minor incision of the tail by a surgical blade. Blood samples were collected in the same manner at 0, 0.5, 1, 2, 3.5, 4, 5, 6, and 24 h after TA-DMN patch application in group 2, and at 0, 0.5, 1, 1.5, 3, 4, 5, 6, and 24 h after TA-DMN patch application in group 3. The collected blood was left at room temperature for 30 min and centrifuged using a microcentrifuge (Hanil, Dajeon, Korea) at 1000× g for 10 min to separate the plasma. All separated plasma samples were transferred to 1.5-mL Eppendorf tubes and stored at −70 °C. TA concentrations in rat plasma were determined via enzyme-linked immunosorbent assay (ELISA) using a TA pharmacokinetics ELISA kit (SB-07-043; Somru Bioscience, Charlottetown, PE, Canada) and a microplate reader (Perkin Elmer, Waltham, MA, USA). Based on the determined TA concentrations in rat plasma, the areas under the concentration curve (AUC) were computed using the trapezoid area calculation method, and BA was evaluated to analyze the pharmacokinetic profiles.

[2] = TA activity after drying in CL-mimic conditions (RP-HPLC); type: physicochemical; settings: droplets dried at 4 °C under vacuum (CL-mimic), reconstituted in PBS, RP-HPLC C18, UV, mean ± SD, n = 15
Protocol: TA activity was assessed via reverse-phase high-performance liquid chromatography (RP-HPLC) under CL-mimic conditions, in which TA undergoes a drying process from droplets of matric polymer with TA. TA polymer solutions were dispensed as droplets on a polyurethane film (SLA, Gumi, Korea) using a robotic dispenser (ML-5000X; Musashi Engineering, Inc., Tokyo, Japan) and dried at 4 °C under vacuum to mimic the conditions of the CL. Dried droplets were then dissolved in phosphate-buffered saline (PBS; Life Technologies, Carlsbad, CA, USA) for reconstitution and analyzed via RP-HPLC using a separation module (Waters e2695; Waters Corp., Milford, MA, USA) and a dual λ absorbance detector (Waters 2487′ Waters Corp., Milford, MA, USA). A C18 column (COSMOSIL; 5 μm, 150 × 4.6 mm) was used for HPLC. Mobile phase A was prepared as 10% acetonitrile (Sigma-Aldrich, St. Louis, MO, USA) and 90% 0.2 M sodium sulfate (Sigma-Aldrich, St. Louis, MO, USA) and phase B was prepared as 50% acetonitrile and 50% of 0.2 M sodium sulfate with a flow rate of 1.3 mL/min and detection wavelength of […].

Tmax ([1]; Group 1: subcutaneous injection, 60.6 μg TA, plasma ELISA, n = 3): 18 min | BA ([1]; Group 1: subcutaneous injection, 60.6 μg TA, positive control (reference), n = 3): 100% and 100 ± 10.5% | half-life ([1]; plasma, after all three TA administration methods (SC, one patch, two patches), read-out: half-life t½ of TA in plasma (converted)): ~48 min | half-life ([1]; sc, Group 1: subcutaneous injection, 60.6 μg TA, plasma ELISA, n = 3, read-out: t1/2 (converted)): 48 min | TA activity after drying ([2]; TA polymer solution (HA) with 10% trehalose): 75.4 ± 8.3% | TA activity after drying ([2]; TA polymer solution (HA) without trehalose): 59.0 ± 3.6%
Structure (SMILES): CC[C@H](C)[C@H](NC(=O)[C@H](CCC(=O)O)NC(=O)[C@H](CO)NC(=O)[C@@H](NC(=O)[C@@H](N)CO)C(C)C)C(=O)N[C@@H](CCC(N)=O)C(=O)N[C@@H](CC(C)C)C(=O)N[C@@H](CCSC)C(=O)N[C@@H](Cc1cnc[nH]1)C(=O)N[C@@H](CC(N)=O)C(=O)N[C@@H](CC(C)C)C(=O)NCC(=O)N[C@@H](CCCCN)C(=O)N[C@@H](Cc1cnc[nH]1)C(=O)N[C@@H](CC(C)C)C(=O)N[C@@H](CC(N)=O)C(=O)N[C@@H](CO)C(=O)N[C@@H](CCSC)C(=O)N[C@@H](CCC(=O)O)C(=O)N[C@@H](CCCN=C(N)N)C(=O)N[C@H](C(=O)N[C@@H](CCC(=O)O)C(=O)N[C@@H](Cc1c[nH]c2ccccc12)C(=O)N[C@@H](CC(C)C)C(=O)N[C@@H](CCCN=C(N)N)C(=O)N[C@@H](CCCCN)C(=O)N[C@@H](CCCCN)C(=O)N[C@@H](CC(C)C)C(=O)N[C@@H](CCC(N)=O)C(=O)N[C@@H](CC(=O)O)C(=O)N[C@H](C(=O)N[C@@H](Cc1cnc[nH]1)C(=O)N[C@@H](CC(N)=O)C(=O)N[C@@H](Cc1ccccc1)C(=O)O)C(C)C)C(C)C [TA, teriparatide acetate]

— article PMC9571303, “Development of Clinical Weekly-Dose Teriparatide Acetate Encapsulated Dissolving Microneedle Patch for Efficient Treatment of Osteoporosis” (Polymers, 2022)
